Values after ≈ are worked out from the molar mass of the structure shown.
Tests used:
[1] = system: Jurkat (acute lymphoblastic leukemia) cells; test: MTT cell growth inhibition, leukemia cells; type: cell-based, human; details: Homo sapiens, Jurkat, 72 h, MTT
Excerpt: (§1) Leukemia cell lines: leukemia cell lines: K562adr (drug-resistant, chronic myeloid leukemia, CML), NB4 (acute promyelocytic leukemia, AML), Kasumi-1 (acute myeloid leukemia M2 type, AML-M2), Jurkat (acute lymphoblastic leukemia, ALL), all of which were donated by Cancer Research Institute of Zhejiang University, China; and H9 (acute lymphoblastic leukemia, ALL), which was purchased from China Center for Type Culture Collection.
(§2) Reagents: The standard sample of fangchinoline (FAN) was purchased from Ci Yuan Biotechnology Co., Ltd., Shaanxi, China; and the 7-substituted fangchinoline derivatives according to the present invention.
(§3) 6000 well-growing leukemia cells were obtained and inoculated into wells of a 96-well cell culture plate. The culture medium was a RPMI-1640 cell culture medium containing 10% fetal bovine serum. After adding the 7-substituted fangchinoline derivatives of different concentrations the next day and mixing uniformly, the plate was placed in a carbon dioxide cell incubator (5% CO2) at 37° C. and incubating for 72 hours. Then the viable cell concentration was determined by the MTT method.

[2] = system: Kasumi-1 (acute myeloid leukemia M2 type) cells; test: MTT cell growth inhibition, leukemia cells; type: cell-based, human; details: Homo sapiens, Kasumi-1, 72 h, MTT
Excerpt: as §1, §2, §3

[3] = system: RPMI 8226 (multiple myeloma) cells; test: MTT cell growth inhibition, multiple myeloma cells; type: cell-based, human; details: Homo sapiens, RPMI 8226, 72 h, MTT
Experimental: Myeloma cell lines: RPMI8226 (multiple myeloma), purchased from Fuxiang Bio-tech Co. Ltd., Shanghai, China.
as §3, with “well-growing” for “well-growing leukemia”, “incubated” for “incubating”

[4] = system: CNE (nasopharyngeal carcinoma) cells; test: MTT cell growth inhibition, solid tumor cells; type: cell-based, human; details: Homo sapiens, CNE, 72 h, MTT
Excerpt: (§4) Hep-2 (laryngeal carcinoma), A549 (human lung cancer), CaES-17 (esophageal cancer cell), PC-3 (prostate cancer), CNE (nasopharyngeal carcinoma cell) and SK-OV-3 (ovarian cancer cell), all of which were purchased from China Center For Type Culture Collection; RKO (human colon adenocarcinoma cell), MGC-803 (human gastric cancer cell), MG-63 (osteosarcoma), and U87-MG (malignant glioma cell), all of which were purchased from Fuxiang Bio-tech Co. Ltd., Shanghai, China; PANC-1 (pancreatic cancer), Becap37 (human breast cancer cell), Hela (human cervical cancer cell) and Hep G2 (human liver cancer cell), all of which were donated by Cancer Research Institute of Zhejiang University, China.
as §3, with “human solid tumor” for “leukemia”, “DMEM High Glucose” for “a RPMI-1640”, “serum. The plate was placed in a carbon dioxide cell incubator (5% CO2) at 37° C. and incubated for 24 hours.” for “serum.”, “added with” for “adding the”, “concentration” for “concentrations the next day”, “incubated” for “incubating”

[5] = system: CaEs-17 (esophageal cancer) cells; test: MTT cell growth inhibition, solid tumor cells; type: cell-based, human; details: Homo sapiens, CaEs17, CaEs-17, 72 h, MTT
Excerpt: as §4
as §3, with “human solid tumor” for “leukemia”, “DMEM High Glucose” for “a RPMI-1640”, “serum. The plate was placed in a carbon dioxide cell incubator (5% CO2) at 37° C. and incubated for 24 hours.” for “serum.”, “added with” for “adding the”, “concentration” for “concentrations the next day”, “incubated” for “incubating”

[6] = system: PANC-1 (pancreatic cancer) cells; test: MTT cell growth inhibition, solid tumor cells; type: cell-based, human
Excerpt: as §4
as §3, with “human solid tumor” for “leukemia”, “DMEM High Glucose” for “a RPMI-1640”, “serum. The plate was placed in a carbon dioxide cell incubator (5% CO2) at 37° C. and incubated for 24 hours.” for “serum.”, “added with” for “adding the”, “concentration” for “concentrations the next day”, “incubated” for “incubating”

[7] = system: PC-3 (prostate cancer) cells; test: MTT cell growth inhibition, solid tumor cells; type: cell-based, human; details: Homo sapiens, PC-3, 72 h, MTT
Excerpt: as §4
as §3, with “human solid tumor” for “leukemia”, “DMEM High Glucose” for “a RPMI-1640”, “serum. The plate was placed in a carbon dioxide cell incubator (5% CO2) at 37° C. and incubated for 24 hours.” for “serum.”, “added with” for “adding the”, “concentration” for “concentrations the next day”, “incubated” for “incubating”

[8] = system: SK-OV-3 (ovarian cancer) cells; test: MTT cell growth inhibition, solid tumor cells; type: cell-based, human; details: Homo sapiens, SK-OV-3, 72 h, MTT
Excerpt: as §4
as §3, with “human solid tumor” for “leukemia”, “DMEM High Glucose” for “a RPMI-1640”, “serum. The plate was placed in a carbon dioxide cell incubator (5% CO2) at 37° C. and incubated for 24 hours.” for “serum.”, “added with” for “adding the”, “concentration” for “concentrations the next day”, “incubated” for “incubating”

[9] = system: A549 (human lung cancer) cells; test: MTT cell growth inhibition, solid tumor cells; type: cell-based; details: Homo sapiens, A549, 72 h, MTT
Excerpt: as §4
as §3, with “human solid tumor” for “leukemia”, “DMEM High Glucose” for “a RPMI-1640”, “serum. The plate was placed in a carbon dioxide cell incubator (5% CO2) at 37° C. and incubated for 24 hours.” for “serum.”, “added with” for “adding the”, “concentration” for “concentrations the next day”, “incubated” for “incubating”

[10] = system: Becap-37 (human breast cancer) cells; test: MTT cell growth inhibition, solid tumor cells; type: cell-based
Excerpt: as §4
as §3, with “human solid tumor” for “leukemia”, “DMEM High Glucose” for “a RPMI-1640”, “serum. The plate was placed in a carbon dioxide cell incubator (5% CO2) at 37° C. and incubated for 24 hours.” for “serum.”, “added with” for “adding the”, “concentration” for “concentrations the next day”, “incubated” for “incubating”

[11] = system: Hela (human cervical cancer) cells; test: MTT cell growth inhibition, solid tumor cells; type: cell-based; details: Homo sapiens, Hela, 72 h, MTT
Excerpt: as §4
as §3, with “human solid tumor” for “leukemia”, “DMEM High Glucose” for “a RPMI-1640”, “serum. The plate was placed in a carbon dioxide cell incubator (5% CO2) at 37° C. and incubated for 24 hours.” for “serum.”, “added with” for “adding the”, “concentration” for “concentrations the next day”, “incubated” for “incubating”

[12] = system: Hep G2 (human liver cancer) cells; test: MTT cell growth inhibition, solid tumor cells; type: cell-based
Excerpt: as §4
as §3, with “human solid tumor” for “leukemia”, “DMEM High Glucose” for “a RPMI-1640”, “serum. The plate was placed in a carbon dioxide cell incubator (5% CO2) at 37° C. and incubated for 24 hours.” for “serum.”, “added with” for “adding the”, “concentration” for “concentrations the next day”, “incubated” for “incubating”

[13] = system: Hep-2 (laryngeal carcinoma) cells; test: MTT cell growth inhibition, solid tumor cells; type: cell-based; details: Homo sapiens, Hep-2, 72 h, MTT
Excerpt: as §4
as §3, with “human solid tumor” for “leukemia”, “DMEM High Glucose” for “a RPMI-1640”, “serum. The plate was placed in a carbon dioxide cell incubator (5% CO2) at 37° C. and incubated for 24 hours.” for “serum.”, “added with” for “adding the”, “concentration” for “concentrations the next day”, “incubated” for “incubating”

[14] = system: MG-63 (osteosarcoma) cells; test: MTT cell growth inhibition, solid tumor cells; type: cell-based; details: Homo sapiens, MG-63, 72 h, MTT
Excerpt: as §4
as §3, with “human solid tumor” for “leukemia”, “DMEM High Glucose” for “a RPMI-1640”, “serum. The plate was placed in a carbon dioxide cell incubator (5% CO2) at 37° C. and incubated for 24 hours.” for “serum.”, “added with” for “adding the”, “concentration” for “concentrations the next day”, “incubated” for “incubating”

[15] = system: MGC-803 (human gastric cancer) cells; test: MTT cell growth inhibition, solid tumor cells; type: cell-based; details: MGC-803, 72 h, MTT
Excerpt: as §4
as §3, with “human solid tumor” for “leukemia”, “DMEM High Glucose” for “a RPMI-1640”, “serum. The plate was placed in a carbon dioxide cell incubator (5% CO2) at 37° C. and incubated for 24 hours.” for “serum.”, “added with” for “adding the”, “concentration” for “concentrations the next day”, “incubated” for “incubating”

[16] = system: RKO (human colon adenocarcinoma) cells; test: MTT cell growth inhibition, solid tumor cells; type: cell-based; details: Homo sapiens, RKO, 72 h, MTT
Excerpt: as §4
as §3, with “human solid tumor” for “leukemia”, “DMEM High Glucose” for “a RPMI-1640”, “serum. The plate was placed in a carbon dioxide cell incubator (5% CO2) at 37° C. and incubated for 24 hours.” for “serum.”, “added with” for “adding the”, “concentration” for “concentrations the next day”, “incubated” for “incubating”

[17] = system: U87-MG (malignant glioma) cells; test: MTT cell growth inhibition, solid tumor cells; type: cell-based; details: Homo sapiens, U-87 MG, U87-MG, 72 h, MTT
Excerpt: as §4
as §3, with “human solid tumor” for “leukemia”, “DMEM High Glucose” for “a RPMI-1640”, “serum. The plate was placed in a carbon dioxide cell incubator (5% CO2) at 37° C. and incubated for 24 hours.” for “serum.”, “added with” for “adding the”, “concentration” for “concentrations the next day”, “incubated” for “incubating”

[18] = system: tumor; test: Antitumor activity compared with fangchinoline, overall statement; type: cell-based; details: tumor type not specified
[19] = relative to fangchinoline, Table 2

- IC50 ([1]; read-out: IC50): 0.64 µg/mL (≈ 0.838 µM)
- IC90 ([1]; read-out: IC90): 1.61 µg/mL (≈ 2.11 µM)
- IC50 ([2]; read-out: IC50): 0.84 µg/mL (≈ 1.1 µM)
- IC90 ([2]; read-out: IC90): 1.86 µg/mL (≈ 2.43 µM)
- IC50 ([3]; read-out: IC50): < 0.125 µg/mL
- IC90 ([3]; read-out: IC90): 0.25 µg/mL (≈ 0.327 µM)
- IC50 ([4]; read-out: IC50): 1.1 µg/mL (≈ 1.44 µM)
- IC90 ([4]; read-out: IC90): 2.4 µg/mL (≈ 3.14 µM)
- IC50 ([5]; read-out: IC50): 0.76 µg/mL (≈ 0.995 µM)
- IC90 ([5]; read-out: IC90): 4.3 µg/mL (≈ 5.63 µM)
- IC50 ([6]; Homo sapiens, PANC-1, 72 h, MTT, read-out: IC50): 1.11 µg/mL (≈ 1.45 µM)
- IC90 ([6]; Homo sapiens, PANC-1, 72 h, MTT, read-out: IC90): 3.77 µg/mL (≈ 4.93 µM)
- IC50 ([7]; read-out: IC50): 2.85 µg/mL (≈ 3.73 µM)
- IC90 ([7]; read-out: IC90): 3.89 µg/mL (≈ 5.09 µM)
- IC50 ([8]; read-out: IC50): 1.39 µg/mL (≈ 1.82 µM)
- IC90 ([8]; read-out: IC90): 5.59 µg/mL (≈ 7.32 µM)
- IC50 ([9]; read-out: IC50): 1.71 µg/mL (≈ 2.24 µM)
- IC90 ([9]; read-out: IC90): 6.8 µg/mL (≈ 8.9 µM)
- IC50 ([10]; Homo sapiens, Becap-37, 72 h, MTT, read-out: IC50): 0.73 µg/mL (≈ 0.956 µM)
- IC90 ([10]; Homo sapiens, Becap-37, 72 h, MTT, read-out: IC90): 2.48 µg/mL (≈ 3.25 µM)
- IC50 ([11]; read-out: IC50): 1.33 µg/mL (≈ 1.74 µM)
- IC90 ([11]; read-out: IC90): 2.41 µg/mL (≈ 3.15 µM)
- IC50 ([12]; Homo sapiens, HepG2, Hep G2, 72 h, MTT, read-out: IC50): 0.66 µg/mL (≈ 0.864 µM)
- IC90 ([12]; Homo sapiens, HepG2, Hep G2, 72 h, MTT, read-out: IC90): 1.51 µg/mL (≈ 1.98 µM)
- IC50 ([13]; read-out: IC50): 2.25 µg/mL (≈ 2.95 µM)
- IC90 ([13]; read-out: IC90): 8 µg/mL (≈ 10.5 µM)
- IC50 ([14]; read-out: IC50): 1.1 µg/mL (≈ 1.44 µM)
- IC90 ([14]; read-out: IC90): 1.7 µg/mL (≈ 2.23 µM)
- IC50 ([15]; read-out: IC50): 0.49 µg/mL (≈ 0.641 µM)
- IC90 ([15]; read-out: IC90): 3.21 µg/mL (≈ 4.2 µM)
- IC50 ([16]; read-out: IC50): 0.44 µg/mL (≈ 0.576 µM)
- IC90 ([16]; read-out: IC90): 0.95 µg/mL (≈ 1.24 µM)
- IC50 ([17]; read-out: IC50): 0.67 µg/mL (≈ 0.877 µM)
- IC90 ([17]; read-out: IC90): 1.19 µg/mL (≈ 1.56 µM)
SMILES: COc1ccc2cc1Oc1ccc(cc1)C[C@H]1c3cc(c(OC)cc3CCN1C)Oc1c(OCC(O)CN3CCCC(C)C3)c(OC)cc3c1[C@H](C2)N(C)CC3 (some centres unmarked) [BS-FC-410]
- anti-PANC-1 activity increase over fangchinoline [6, 19]: ~3 fold
- anti-Becap37 activity increase over fangchinoline [10, 19]: ~3 fold
- anti-Hep G2 activity increase over fangchinoline [12, 19]: ~3 fold
- antitumor activity compared with that of fangchinoline [18]: significantly superior

Source: patent US9328122B2, “7-substituted Hanfangichin B derivative, and preparation method and use thereof” (HANGZHOU BENSHENG PHARMACEUTICAL CO., LTD., priority 2012, dated 2016)
